Reference: US6365173B1, “Stereocomplex polymeric carriers for drug delivery” (Efrat Biopolymers Ltd., priority 1999, dated 2002)
Each block holds one compound with its values, some of them ahead of it.

What was measured:
Type in all cases: physicochemical
[1] = Ibuprofen release from D-PLA-HSA stereocomplex tablets in phosphate buffer; conditions: ibuprofen (100 mg) with D-PLA-HSA or D-PLA-L-PLA-HSA (500 mg), 300 mg tablets; phosphate buffer at physiological pH 37° C.
Protocol: The precipitate of D-PLA-HSA prepared as described in Example 9 was also used as a matrix carrier for the delivery of small drugs. In a typical experiment, a fine powder of ibuprofen (100 mg) was mixed with the D-PLA-HSA or D-PLA-L-PLA-HSA (500 mg) and the powder was compressed into tablets of 300 mg each. The tablets released the ibuprofen for one week when placed in phosphate buffer at physiological pH 37° C. In similar experiments, other proteins were stereocomplexed with PLA enantiomers including fibrin, fibrinogen, collagen and gelatin.

[2] = In vitro release of leuprolide from D-PLA/L-PLA complex powder; conditions: in 40 days; 4 mg leuprolide acetate in D-PLA/L-PLA complex powder; phosphate buffer pH 7.4 at 37° C.
Protocol: Preparation of complex: Solutions of leuprolide acetate in acetonitrile (4 mg) and D-PLA, (58 mg, Mw=100,000) and L-PLA (38 mg, Mw=30,000) in acetonitrile were mixed together (total 5 ml) and allowed to stir for 3 days at 50° C. The precipitated powder was isolated by filtration to yield 98 mg of 1 micron size porous particles. No leuprolide remained in the acetonitrile solution.
In vitro release was conducted in phosphate buffer pH 7.4 at 37° C. Leuprolide concentration was determined by HPLC (acetonitrile:water, C18 column, 1 ml/min). About 37% of the drug was released constantly in 40 days.

[3] = TRH release from D-PLA complex powder in phosphate buffer; conditions: D-PLA complex powder (10% w/w TRH) dispersed in phosphate buffer pH7.4 at 37° C.
Protocol: TRH is a tripeptide with the following structure: pL-Glu-L-His-L-Pro_NH2. 250 mg of D-PLA (Mw=30,000 or Mw=6,000) were mixed with 25 mg (10% w/w) of TRH in 10 ml acetonitrile at 60° C. The solution became clear after 15 minutes and remained clear for 72 hours, at which point precipitate formed. The solution was very turbid, but could not be filtered at room temperature due to the fine particle size of the precipitate. After cooling at 0° C. over night, the precipitate was filtered. The TRH concentration in the acetonitrile solution and in the powder was analyzed as described above using the Lowry method for peptide analysis. Over 90% of the drug was determined to be in the powder and a negligible amount of the drug was found in the acetonitrile solution. When dispersed in phosphate buffer pH7.4 at 37° C., TRH was constantly released for 6 weeks.

[4] = MTX release from PLA stereocomplex tablets in phosphate buffer; conditions: first 10 days; 10 ml pH 7.4 phosphate buffer at 37° C., shaking 150 RPM
Protocol: Formulations: MTX was incorporated in a stereocomplex of D-PLA/L-PLA (Mw=30,000) prepared by precipitation in acetonitrile. The drug in the form of a powder was mixed with the stereocomplex in the form of a powder, and the mixture compression molded to form tablets. Alternatively, the stereocomplex and MTX were dissolved in dichloromethane, and solvent evaporated to yield a fine powder. For comparison, a solution of random amorphic DL-PLA (Mw=30,000) and MTX was evaporated to dryness to yield a clear flexible and strong yellow film which could be formed into a powder through the use of liquid nitrogen.
In a typical experiment, 300 mg of PLA 1:1 stereocomplex was dissolved in dichloromethane. MTX (5% w/w) was added to the solution, and the mixture was vortexed for two minutes. The solvent was evaporated with a nitrogen stream, to yield a very fine powder. […] Discs were prepared by compression molding of the MTX—stereocomplex power (100 mg) using a stainless steel mold (internal diameter 10 mm) and a Carver Press at 10 tons. Alternatively, 300 mg of PLA 1:1 stereocomplex fine powder (average particle size 2.2 microns was mixed with MTX (150 mg) and the uniform powder was compressed into tablets of 200 mg each.
MTX release was conducted in 10 ml of pH 7.4 phosphate buffer at 37° C. with constant shaking of 150 RPM. […]

[5] = LHRH release from PLA stereocomplex powders in phosphate buffer (syringe method, HPLC); conditions: nanosize complexes of LHRH with D-PLA, precipitated in hot acetonitrile
Protocol: The analysis of LHRH was conducted using the following HPLC method: Mobile phase comprised 30% acetonitrile, 70% TEAP (triethylammoniumphosphate) buffer […] pH-3. Column comprised Lichrosphere RP-18 […] (MERCK); Detector. UV 278 nm and flow rate at 1 ml/min.
All samples were filtered through a 2μ filter. One drop of phosphoric acid was added to the sample solutions before injection. The retention time for LHRH was 6.5 minutes and a calibration curve was generated (r2=0.999).
Since the powder of the LHRH in the stereocomplex is very thin, all the attempts to sink it at the release medium failed. The release was conducted in the following way: 100 mg of the powder in 5 ml phosphate buffer were added to a 10 ml syringe. The edge of the syringe was sealed and constantly shaken at a rate of 150 RPM and a temperature of 37° C. At each interval of time, the syringe was inverted so that the solid floated at the top of the buffer and all of the buffer was pushed out of the syringe in a dropwise fashion. Using this technique, the powders of LHRH in PLA stereocomplex (formulations a-e) were analyzed against a control blank of PLA stereocomplex (no drug).

[6] = Release of lidocaine from compression molded stereocomplex devices in buffer; conditions: compression molded D-PLA/L-PLA stereocomplex (200 mg, Mw=30,000) with lidocaine (20 mg); buffer solution pH 7.4 at 37° C.
Protocol: A fine powder of the nano-discs stereocomplexed of D-PLA and L-PLA and their complexes which were of flat shapes of discs, rods, and triangles, as analyzed in Example 3, provided a unique opportunity for the preparation of drug delivery devices. Devices were prepared by compression molding of these nanoscale structures with drugs.
The disintegration time and the release of the incorporated drug in buffer solutions was slower than the compression molded devices of the corresponding regular polymers. The regular polymer powders are difficult to obtain and their properties are erratic, since they are prepared by precipitation in non-aqueous solvent and grinding at a temperature below the glass transition temperature which provides irregular particle size and shape. The particles formed by stereocomplex formation are of well-defined flat crystallites that are easy to compression mold.
In a typical experiment, disc (10×2 mm) and rod shape (4×10 mm) devices were prepared by mixing the stereocomplex powder of D-PLA and L-PLA (200 mg, Mw=30,000) with lidocaine (20 mg) and compression molding into discs of […] size.
Lidocaine was released constantly for 30 days when placed in buffer solution p H7.4 at 37° C.

Compound: CC(C)Cc1ccc(C(C)C(=O)O)cc1 (stereo not drawn) [ibuprofen]
time over which the tablets released ibuprofen [1]: one

Compound: pL-Glu-L-His-L-Pro_NH2 [TRH]
time over which TRH was constantly released [3]: 6 weeks

Compound: Leutinizing Hormone Releasing Hormone [LHRH]
time over which LHRH was constantly released from nanospheres [5]: over 3 weeks

Compound: CCN(CC)CC(=O)Nc1c(C)cccc1C [Lidocaine, lidocaine]
time over which lidocaine was released constantly [6]: 30 days

Next, values leading:

drug (leuprolide) released constantly [2]: About 37%
Compound: CCNC(=O)[C@@H]1CCCN1C(=O)[C@H](CCCNC(=N)N)NC(=O)[C@H](CC(C)C)NC(=O)[C@@H](CC(C)C)NC(=O)[C@H](Cc1ccc(O)cc1)NC(=O)[C@H](CO)NC(=O)[C@H](Cc1c[nH]c2ccccc12)NC(=O)[C@H](Cc1c[nH]cn1)NC(=O)[C@@H]1CCC(=O)N1 [Leuprolide, leuprolide acetate]

MTX constantly released from the PLA stereocomplex [4]: About 30%
Compound: CN(Cc1cnc2nc(N)nc(N)c2n1)c1ccc(C(=O)N[C@@H](CCC(=O)O)C(=O)O)cc1 [MTX, Methotrexate]
